Results taken from BigSolDB 2.1.

c1ccc2c(c1)Nc1ccccc1S2
solubility (mole fraction) (in ethanol, 298.2 K): 0.00876 | solubility (mole fraction) (in ethanol, 308.2 K): 0.01 | solubility (mole fraction) (in ethanol, 318.2 K): 0.0122 | solubility (mole fraction) (in ethanol, 328.2 K): 0.0145 | solubility (mole fraction) (in propylene glycol, 298.2 K): 0.00416 | solubility (mole fraction) (in propylene glycol, 308.2 K): 0.0054 | solubility (mole fraction) (in propylene glycol, 318.2 K): 0.00656 | solubility (mole fraction) (in propylene glycol, 328.2 K): 0.00763 | solubility (mole fraction) (in propylene glycol, 338.2 K): 0.00852 | solubility (mole fraction) (in water, 298.2 K): 1.56e-07 | solubility (mole fraction) (in water, 308.2 K): 1.98e-07 | solubility (mole fraction) (in water, 318.2 K): 2.52e-07 | solubility (mole fraction) (in water, 328.2 K): 3.58e-07 | solubility (mole fraction) (in water, 338.2 K): 4.91e-07
